Legend:
[1] = target: T1, recombinant purified human BTK (Homo sapiens, UniProt Q06187); test: In vitro BTK kinase assay on ADP Glo platform; format: biochemical; conditions: 2 hr room temperature, read-out: In-vitro BTK inhibitory activity: IC50
T1 construct: purchased SignalChem, USA
Procedure: Testing of Compounds of the Invention Biological Studies: In vitro BTK Inhibitory Activity Assay:
In vitro BTK inhibitory activity of test compounds were screened using BTK kinase assay on ADP Glo platform (Li, H., Totoritis, R. D., Lor, L. A., Schwartz, B., Caprioli, P., Jurewicz, A. J and Zhang, G., Assay Drug Dev. Technol., 2009, 7(6), 598-605). Briefly, fixed amount of recombinant purified human BTK (3 ng/reaction from SignalChem, USA) were incubated with increasing concentration of test compounds, in 1× kinase reaction buffer (40 mM Tris-Cl, pH7.5, 20 mM MgCl2, 2 mM MnCl2, 0.1 mg/ml BSA and 50 μM DTT). Enzymatic reaction was initiated by adding a substrate cocktail containing 50 µM of ATP (final concentration) and […] of polyGln4Tyr1 (Signal Chem) in total 25 μl of reaction, in round bottom white 96 well plate. The reaction mixture was incubated at room temperature for 2 hr. After 2 hr of incubation, 10 μl of the reaction mix was mixed with […] of ADP Glo reagent, in another round bottom white 96 well plate and incubated at room temperature for 40 min. This was followed by addition of kinase detection reagent (20 μl per reaction) and incubation at room temperature for 30 min. Finally, plate was read for luminescence at an integration time of 500 millisecond per well. Data were plotted taking Enzyme with no inhibitor set as the 100% kinase activity and for dose response curve, % Kinase activity was plotted against conc on Log scale and IC50 was determined by non linear curve fitting method using GraphPad Prism software 6. The in vitro BTK inhibitory activity (IC50) for representative compounds are listed in […]

CYP 2D6 = target: T2, CYP 2D6 (Homo sapiens, UniProt P10635); test: CYP inhibition in human liver microsomes, 2D6; format: in vitro ADME; conditions: pH 7.4, @ 10 μM concn
T2 construct: from tissue; host or cells: human liver microsomes
T2 sequence (P10635 whole entry): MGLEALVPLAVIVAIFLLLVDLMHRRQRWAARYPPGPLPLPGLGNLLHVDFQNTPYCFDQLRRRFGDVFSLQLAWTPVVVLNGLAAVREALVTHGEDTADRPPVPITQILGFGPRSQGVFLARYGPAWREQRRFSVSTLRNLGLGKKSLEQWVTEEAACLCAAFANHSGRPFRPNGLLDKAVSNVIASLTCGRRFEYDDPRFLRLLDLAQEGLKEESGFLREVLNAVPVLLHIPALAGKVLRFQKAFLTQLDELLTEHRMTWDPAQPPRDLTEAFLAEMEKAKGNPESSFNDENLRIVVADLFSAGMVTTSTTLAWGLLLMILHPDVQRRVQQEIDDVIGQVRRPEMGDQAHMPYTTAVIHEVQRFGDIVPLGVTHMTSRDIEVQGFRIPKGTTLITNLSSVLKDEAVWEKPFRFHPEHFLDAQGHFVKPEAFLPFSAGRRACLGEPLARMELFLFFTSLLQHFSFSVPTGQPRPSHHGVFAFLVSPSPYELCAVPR
Procedure: (§1) CYP Inhibition Studies: CYP inhibition studies were performed with test compounds, at two concentrations ([…] and 10 μM), using human liver microsomes (Yao, M., Zhu, M., Sinz, M. W., Zhang, H., Humphreys, W. F., Rodrigues, A. D and Dai, R., Journal of Pharmaceutical and Biomedical Analysis, 2007, 44, 211-223; Walsky, R. L and Obach, R. S., Drug Metab. Dispos., 2004, 32, 647-660). Human liver microsomes were mixed with 100 mM phosphate buffer (pH 7.4) and probe substrate and warmed to […] in microcentrifuge tubes. Aliquots of this mixture (499 μL) were transferred to each pre-labeled microcentrifuge tubes, followed by addition of the 1 μL of inhibitors (test compound/CYP-specific positive control inhibitor) or control solvent (DMSO). Aliquots of this mixture (90 μL) were transferred to each pre-labeled microcentrifuge tubes in duplicate. Final solvent concentrations were 0.2% (v/v) or less. Incubations were commenced with the addition of 10 μL NADPH stock (assay concentration, 1 mM) to a final incubation volume of 100 μL and incubated in shaking water bath (at 37° C. and 100 rpm), for the period defined in Tables 1. Incubations were terminated by addition of 400 μL of termination solvent (CH3CN) containing internal standard. The terminated samples were vortex-mixed, centrifuged at 10000 rpm for 5 min and supernatant transferred into HPLC vials for LC-MS/MS analysis to monitor metabolites produced by marker CYP reactions. […] Animals

CYP 2C8 = target: T3, CYP 2C8 (Homo sapiens, UniProt P10632); test: CYP inhibition in human liver microsomes, 2C8; format: in vitro ADME; conditions: pH 7.4, @ 10 μM concn
T3 construct: from tissue; host or cells: human liver microsomes
T3 sequence (P10632 1-490): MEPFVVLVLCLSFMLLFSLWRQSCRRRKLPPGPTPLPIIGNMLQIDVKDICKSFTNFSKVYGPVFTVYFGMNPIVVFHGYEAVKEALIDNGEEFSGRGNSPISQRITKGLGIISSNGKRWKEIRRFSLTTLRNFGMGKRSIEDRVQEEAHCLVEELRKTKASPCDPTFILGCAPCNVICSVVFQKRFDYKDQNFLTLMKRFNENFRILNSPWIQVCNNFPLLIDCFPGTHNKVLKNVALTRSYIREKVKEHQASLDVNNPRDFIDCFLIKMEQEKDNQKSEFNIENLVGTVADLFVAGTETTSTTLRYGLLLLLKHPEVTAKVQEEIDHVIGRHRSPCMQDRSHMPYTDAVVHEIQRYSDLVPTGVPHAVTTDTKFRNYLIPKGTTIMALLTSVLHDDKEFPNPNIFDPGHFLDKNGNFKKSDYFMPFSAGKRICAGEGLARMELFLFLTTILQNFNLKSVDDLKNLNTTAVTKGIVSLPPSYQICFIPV
Procedure: as §1

CYP 2C19 = target: T4, CYP 2C19 (Homo sapiens, UniProt P33261); test: CYP inhibition in human liver microsomes, 2C19; format: in vitro ADME; conditions: pH 7.4, @ 10 μM concn
T4 construct: from tissue; host or cells: human liver microsomes
T4 sequence (P33261 whole entry): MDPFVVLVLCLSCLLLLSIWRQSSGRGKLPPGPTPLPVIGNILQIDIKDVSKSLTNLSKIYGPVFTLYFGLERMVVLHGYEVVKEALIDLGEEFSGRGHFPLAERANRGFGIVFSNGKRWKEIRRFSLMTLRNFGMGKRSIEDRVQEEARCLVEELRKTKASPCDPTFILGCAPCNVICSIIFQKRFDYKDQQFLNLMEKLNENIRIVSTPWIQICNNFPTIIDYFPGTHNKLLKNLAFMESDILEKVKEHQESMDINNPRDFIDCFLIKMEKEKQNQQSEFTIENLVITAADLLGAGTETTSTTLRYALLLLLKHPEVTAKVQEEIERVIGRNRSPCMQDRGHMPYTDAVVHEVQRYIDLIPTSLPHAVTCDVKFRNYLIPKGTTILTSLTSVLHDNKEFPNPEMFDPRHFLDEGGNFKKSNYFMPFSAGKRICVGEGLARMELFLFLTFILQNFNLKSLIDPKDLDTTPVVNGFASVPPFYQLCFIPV
Procedure: as §1

CYP 2C9 = target: T5, CYP 2C9 (Homo sapiens, UniProt P11712); test: CYP inhibition in human liver microsomes, 2C9; format: in vitro ADME; conditions: pH 7.4, @ 10 μM concn
T5 construct: from tissue; host or cells: human liver microsomes
T5 sequence (P11712 whole entry): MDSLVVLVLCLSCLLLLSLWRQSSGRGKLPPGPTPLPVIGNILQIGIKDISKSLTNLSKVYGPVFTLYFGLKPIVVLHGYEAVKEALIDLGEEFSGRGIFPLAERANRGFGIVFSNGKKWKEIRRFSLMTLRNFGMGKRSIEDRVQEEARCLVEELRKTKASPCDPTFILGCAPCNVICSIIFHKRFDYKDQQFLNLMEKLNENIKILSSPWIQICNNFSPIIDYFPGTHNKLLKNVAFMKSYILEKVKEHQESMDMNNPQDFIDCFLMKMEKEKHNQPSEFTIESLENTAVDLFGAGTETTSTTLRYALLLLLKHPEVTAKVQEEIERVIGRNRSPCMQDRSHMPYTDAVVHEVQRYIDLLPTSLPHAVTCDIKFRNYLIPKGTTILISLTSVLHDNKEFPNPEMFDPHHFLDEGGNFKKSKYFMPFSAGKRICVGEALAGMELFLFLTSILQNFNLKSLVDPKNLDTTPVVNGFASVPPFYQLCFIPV
Procedure: as §1

CYP 1A2 = target: T6, CYP 1A2 (Homo sapiens, UniProt P05177); test: CYP inhibition in human liver microsomes, 1A2; format: in vitro ADME; conditions: pH 7.4, @ 10 μM concn
T6 construct: from tissue; host or cells: human liver microsomes
T6 sequence (P05177 1-516): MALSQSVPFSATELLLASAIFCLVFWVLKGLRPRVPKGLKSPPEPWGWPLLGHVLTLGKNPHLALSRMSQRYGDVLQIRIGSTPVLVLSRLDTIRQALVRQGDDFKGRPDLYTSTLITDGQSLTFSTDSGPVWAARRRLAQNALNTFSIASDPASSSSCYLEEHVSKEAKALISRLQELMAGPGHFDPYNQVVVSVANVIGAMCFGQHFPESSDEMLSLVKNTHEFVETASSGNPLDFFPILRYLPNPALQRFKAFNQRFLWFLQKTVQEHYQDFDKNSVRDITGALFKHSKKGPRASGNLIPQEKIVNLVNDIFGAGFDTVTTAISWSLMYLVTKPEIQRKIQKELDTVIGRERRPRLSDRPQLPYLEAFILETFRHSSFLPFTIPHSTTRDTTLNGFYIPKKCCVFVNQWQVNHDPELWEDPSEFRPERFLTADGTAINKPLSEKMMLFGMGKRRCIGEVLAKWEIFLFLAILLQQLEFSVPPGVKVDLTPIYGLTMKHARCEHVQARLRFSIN
Procedure: as §1

CYP 3A4 = target: T7, CYP 3A4 (Homo sapiens, UniProt P08684); test: CYP inhibition in human liver microsomes, 3A4; format: in vitro ADME; conditions: pH 7.4, @ 10 μM concn
T7 construct: from tissue; host or cells: human liver microsomes
T7 sequence (P08684 whole entry): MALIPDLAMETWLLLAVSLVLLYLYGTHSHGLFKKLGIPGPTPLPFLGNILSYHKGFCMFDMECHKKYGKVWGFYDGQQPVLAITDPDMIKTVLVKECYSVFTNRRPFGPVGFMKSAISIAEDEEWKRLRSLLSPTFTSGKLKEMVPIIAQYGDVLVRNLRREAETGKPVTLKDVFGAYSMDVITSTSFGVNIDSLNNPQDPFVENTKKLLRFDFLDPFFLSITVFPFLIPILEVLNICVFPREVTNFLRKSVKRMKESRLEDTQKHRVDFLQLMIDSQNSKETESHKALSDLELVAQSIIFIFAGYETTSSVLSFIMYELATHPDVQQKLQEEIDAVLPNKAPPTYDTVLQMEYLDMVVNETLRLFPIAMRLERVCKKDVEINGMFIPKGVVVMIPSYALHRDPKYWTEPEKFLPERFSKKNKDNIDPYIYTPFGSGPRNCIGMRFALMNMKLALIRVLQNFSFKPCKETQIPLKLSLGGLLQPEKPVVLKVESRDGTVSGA
Procedure: as §1

T1 sequence (Q06187 whole entry): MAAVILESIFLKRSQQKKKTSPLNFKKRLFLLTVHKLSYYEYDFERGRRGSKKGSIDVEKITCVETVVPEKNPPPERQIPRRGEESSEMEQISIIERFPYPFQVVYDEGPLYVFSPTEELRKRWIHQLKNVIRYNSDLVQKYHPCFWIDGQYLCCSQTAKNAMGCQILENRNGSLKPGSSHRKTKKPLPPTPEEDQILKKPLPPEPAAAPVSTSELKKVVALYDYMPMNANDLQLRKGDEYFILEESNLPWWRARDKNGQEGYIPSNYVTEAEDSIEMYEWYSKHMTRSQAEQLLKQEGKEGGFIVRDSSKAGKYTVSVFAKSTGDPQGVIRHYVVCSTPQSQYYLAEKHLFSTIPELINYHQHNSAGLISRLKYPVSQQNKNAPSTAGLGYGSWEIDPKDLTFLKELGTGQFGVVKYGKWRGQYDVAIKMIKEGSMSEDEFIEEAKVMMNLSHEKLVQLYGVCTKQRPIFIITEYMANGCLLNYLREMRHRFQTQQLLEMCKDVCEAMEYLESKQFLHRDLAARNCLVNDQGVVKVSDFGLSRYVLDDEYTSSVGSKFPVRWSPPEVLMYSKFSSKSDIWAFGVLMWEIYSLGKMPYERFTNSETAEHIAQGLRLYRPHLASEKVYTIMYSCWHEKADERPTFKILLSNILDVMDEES

SMILES | IC50 [1] | inhibition at 10 μM (CYP 2D6) | inhibition at 10 μM (CYP 2C8) | inhibition at 10 μM (CYP 2C19) | inhibition at 10 μM (CYP 2C9) | inhibition at 10 μM (CYP 1A2) | inhibition at 10 μM (CYP 3A4)
C=CC(=O)N1CC2CC(n3nc(-c4ccc5nc(-c6ccccc6)sc5c4)c4c(N)ncnc43)CC2C1 (centres unmarked) [Compound 14, 1-(5-(4-amino-3-(2-phenylbenzo[d]thiazol-6-yl)-1H-pyrazolo[3,4-d]pyrimidin-1-yl)hexahydrocyclopenta[c]pyrrol-2(1H)-yl)prop-2-en-1-one] | 1.4 nM | < 50% | < 50% | < 50% | < 50% | < 50% | < 50%
C=CC(=O)N1CC2CC(n3nc(-c4ccc5c(c4)oc4ccccc45)c4c(N)ncnc43)CC2C1 (centres unmarked) [Compound 8, 1-(5-(4-amino-3-(dibenzo[b,d]furan-3-yl)-1H-pyrazolo[3,4-d]pyrimidin-1-yl)hexahydrocyclopenta[c]pyrrol-2(1H)-yl)prop-2-en-1-one] | 4 nM | < 50% | < 50% | > 50% | < 50% | < 50% | < 50%
C=CC(=O)N1CC2CC(n3nc(-c4ccc5ncsc5c4)c4c(N)ncnc43)CC2C1 (centres unmarked) [Compound 2, 1-(5-(4-amino-3-(benzo[d]thiazol-6-yl)-1H-pyrazolo[3,4-d]pyrimidin-1-yl)hexahydrocyclopenta[c]pyrrol-2(1H)-yl)prop-2-en-1-one] | 1.1 nM | < 50% | < 50% | < 50% | < 50% | < 50% | < 50%
C=CC(=O)N1CC2CC(n3nc(-c4ccc(NC(=O)c5cnccn5)cc4)c4c(N)ncnc43)CC2C1 (centres unmarked) [Compound 35, N-(4-(1-(2-acryloyloctahydrocyclopenta[c]pyrrol-5-yl)-4-amino-1H-pyrazolo[3,4-d]pyrimidin-3-yl)phenyl)pyrazine-2-carb oxamide] | 1.2 nM | < 50% | < 50% | < 50% | < 50% | < 50% | < 50%
CO/C(=N\c1cc(C)ccn1)c1ccc(-c2nn(C3CC4CN(C(=O)/C=C/CN(C)C)CC4C3)c3ncnc(N)c23)cc1 (centres unmarked) [Compound 50, (Z)-methyl 4-(4-amino-1-(2-((E)-4-(dimethylamino)but-2-enoyl)octahydrocyclopenta[c]pyrrol-5-yl)-1H-pyrazolo[3,4-d]pyrimidin-3-yl)-N-(4-methylpyridin-2-yl) benzimidate] | 19 nM | > 50% | < 50% | < 50% | < 50% | < 50% | > 50%

Continued by falling IC50 [1], values first:

IC50 [1] | inhibition at 10 μM (CYP 2D6) | inhibition at 10 μM (CYP 2C8) | inhibition at 10 μM (CYP 2C19) | inhibition at 10 μM (CYP 2C9) | inhibition at 10 μM (CYP 1A2) | inhibition at 10 μM (CYP 3A4) | SMILES
40 nM | > 50% | < 50% | < 50% | < 50% | < 50% | < 50% | C=CC(=O)N1CC2CC(n3nc(-c4ccc5ocnc5c4)c4c(N)ncnc43)CC2C1 (centres unmarked) [Compound 22, 1-(5-(4-amino-3-(benzo[d]oxazol-5-yl)-1H-pyrazolo[3,4-d]pyrimidin-1-yl)hexahydrocyclopenta[c]pyrrol-2(1H)-yl)prop-2-en-1-one]
28 nM | < 50% | > 50% | < 50% | > 50% | < 50% | > 50% | C=CC(=O)N1CC2CC(n3nc(-c4ccc5nc(NC(C)=O)sc5c4)c4c(N)ncnc43)CC2C1 (centres unmarked) [Compound 9, N-(6-(1-(2-acryloyloctahydrocyclopenta[c]pyrrol-5-yl)-4-amino-1H-pyrazolo [3,4-d]pyrimidin-3-yl)benzo[d]thiazol-2-yl)acetamide]
6 nM | < 50% | < 50% | < 50% | > 50% | < 50% | > 50% | C=CC(=O)N1CC2CC(n3nc(-c4ccc5c(c4)CCS5)c4c(N)ncnc43)CC2C1 (centres unmarked) [Compound 7, 1-(5-(4-amino-3-(2,3-dihydrobenzo[b]thiophen-5-yl)-1H-pyrazolo [3,4-d]pyrimidin-1-yl)hexahydrocyclopenta[c]pyrrol-2(1H)-yl)prop-2-en-1-one]
5 nM | < 50% | < 50% | < 50% | < 50% | < 50% | > 50% | C=CC(=O)N1CC2CC(n3nc(-c4ccc5ncoc5c4)c4c(N)ncnc43)CC2C1 (centres unmarked) [Compound 17, 1-(5-(4-amino-3-(benzo[d]oxazol-6-yl)-1H-pyrazolo[3,4-d]pyrimidin-1-yl)hexahydrocyclopenta[c]pyrrol-2(1H)-yl)prop-2-en-1-one]
2 nM | < 50% | < 50% | < 50% | < 50% | < 50% | < 50% | C=CC(=O)N1CC2CC(n3nc(-c4ccc(Oc5ccccn5)cc4)c4c(N)ncnc43)CC2C1 (centres unmarked) [Compound 43, 1-(5-(4-amino-3-(4-(pyridin-2-yloxy)phenyl)-1H-pyrazolo[3,4-d]pyrimidin-1-yl)hexahydrocyclopenta[c]pyrrol-2(1H)-yl)prop-2-en-1-one]
1.3 nM | < 50% | < 50% | < 50% | < 50% | < 50% | < 50% | C=CC(=O)N1CC2CC(n3nc(-c4ccc(Oc5ccccc5)cc4)c4c(N)ncnc43)CC2C1 (centres unmarked) [Compound 1, 1-(5-(4-amino-3-(4-phenoxyphenyl)-1H-pyrazolo[3,4-d]pyrimidin-1-yl)hexahydrocyclopenta[c]pyrrol-2(1H)-yl)prop-2-en-1-one]

Source: patent US9840509B2, “Heterocyclic compounds” (CADILA HEALTHCARE LIMITED, priority 2014, dated 2017)
